Drawing on patent US10953012B2, “Heterocyclic compounds for the inhibition of pask” (BioEnergenix LLC, priority 2011, dated 2021), this text covers IC50 for 28 molecules.

The assay has as its target PASK (Homo sapiens (Human), UniProt Q96RG2). The assay can be described thus: PAS Kinase FRET Assay. Type of assay: biochemical. Particulars: TR-FRET assay; read-out: IC50 Kinase Domain. The source says: The aim of the FRET assay is to determine the inhibition potential of test compounds on targeted kinase. This assay platform provides a homogenous screening method for measuring kinase activity by quantitating the amount of phospho-substrate in solution following a kinase reaction.
In the presence of kinase and ATP, the Ulight-peptide is phosphorylated and captured by an anti-phospho-substrate antibody, which brings the Eu chelate donor and Ulight acceptor dyes into close proximity. Upon excitation at 340 nm, the Eu chelate transfers its energy to the Ulight dye, resulting in a fluorescent light emission at 665 nm
Titration of kinase at 1 mM ATP was achieved via the following protocol. After making serial three-fold dilutions of PASK (Invitrogen) in reaction buffer across the plate; 5 μl of kinase dilution and 5 μl substrate/ATP mix were added to the wells of the white Optiplate-384 (PerkinElmer). The contents of the plate were and incubated at RT for 1 h. The reaction was stopped by adding 5 μl of stop solution to each test well followed by mixing and incubation at RT for 10 minutes. 5 μl of detection mix (detection antibody diluted in detection buffer) was added; the contents of the plate were mixed and then incubated in the dark for 1 hour at RT. The signal was recorded at TR-FRET mode (665 nm/615 nm). The results were graphed to calculate the EC50.
Titration of ATP at the EC50 concentration of kinase to determine ATP Km, app. was performed using the following method. After making serial dilutions of ATP (Invitrogen), 5 μl of ATP dilution and 5 μl substrate/kinase mix were added to the wells of the white Optiplate-384 (PerkinElmer). The contents of the plate were and incubated at RT for 1 h. The reaction was stopped by adding 5 μl of stop solution to each test well followed by mixing and incubation at RT for 10 minutes. 5 μl of detection mix (detection antibody diluted in detection buffer) was added; the contents of the plate were mixed and then incubated in the dark for 1 hour at RT. The signal was recorded at TR-FRET mode (665 nm/615 nm). The results were graphed to calculate the EC50 as the ATP Km, app.
Compound screening was done via the following method. 10 mM stock solution of test compound in DMSO was prepared by dissolving test compound in DMSO at RT for 1 hour, and then sonicating at 100% output for 8 minutes. If compound is not soluble under this condition, it was diluted to 3 mM. Kinase reaction buffer was prepared containing 10 mM MgCl2, 50 mM HEPES, 1 mM EGTA, 0.01% TWEEN-20, 2 mM DTT. Serial dilutions of the test compounds were prepared at 4×final assay concentrations using Freedom EVO200® dispensing system as follows: 12×10^−5 M, 4×10^−5 M, 1.33×10^−5 M, 4.44×10^−6 M, 1.48×10^−6 M, 4.92×10^−7 M, 1.65×10^−7 M, […], 1.82×10^−8M, 6.09×10^−9, 2.03×10^−9 M. Test compounds (2.5 μl at 4× the final assay concentration) was added to wells using Freedom EVO200® dispensing system. As a positive control, 2.5 μl of positive compound was added to assay wells, and 2.5 μl of DMSO to assay wells as vehicle control. Kinase solution was prepared in reaction buffer at 2×final assay concentration. Kinase solution (5 μl) was added to each well of the assay plate. The substrate and ATP solution was prepared in kinase reaction buffer at 4×final assay concentration. The kinase reaction was started by adding 2.5 μl of substrate+ATP mix solution to each well of the assay plate. The plate is mixed on a plate shaker; then covered and allowed to react for 2 hours in the dark at 25° C. without shaking. The reaction was stopped by adding 5 μl of stop solution to each test well followed by mixing and incubation at RT for 10 minutes in the dark. 5 μl of detection mix (detection antibody diluted in detection buffer) was added; the contents of the plate were mixed and then incubated in the dark for 1 hour at RT. The signal was recorded at TR-FRET mode (665 nm/615 nm).

Molecules are shown by their SMILES.

Chain of PASK (Q96RG2 999-1251): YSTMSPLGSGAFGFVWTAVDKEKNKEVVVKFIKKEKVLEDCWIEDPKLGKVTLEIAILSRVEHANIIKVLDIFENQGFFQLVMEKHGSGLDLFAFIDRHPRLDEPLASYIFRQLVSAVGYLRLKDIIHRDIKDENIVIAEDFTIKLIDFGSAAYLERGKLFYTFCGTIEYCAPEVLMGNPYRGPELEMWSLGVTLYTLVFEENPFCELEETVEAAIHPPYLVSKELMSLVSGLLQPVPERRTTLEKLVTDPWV

Consider `Cc1coc2ccc(-c3cc(=O)n4nc(N)c(-c5ccccn5)c4[nH]3)cc12` [Example 166, 2-Amino-5-(3-methylbenzofuran-5-yl)-3-(pyridin-2-yl)pyrazolo[1,5-a]pyrimidin-7(4H)-one], for which the IC50 was at most 10 µM.

In the case of `Cc1coc2ccc(-c3cc(=O)n4ncc(-c5ccccn5)c4[nH]3)cc12` [Example 167, 5-(3-Methylbenzofuran-5-yl)-3-(pyridin-2-yl)pyrazolo[1,5-a]pyrimidin-7(4H)-one], the IC50 was at most 10 µM.

Consider `Cc1coc2ccc(-c3cc(=O)n4nc(O)c(-c5ccccn5)c4[nH]3)cc12` [Example 168, 2-Hydroxy-5-(3-methylbenzofuran-5-yl)-3-(pyridin-2-yl)pyrazolo[1,5-a]pyrimidin-7(4H)-one], for which the IC50 is at most 10 µM.

As to `Cc1cc2cc(-c3cc(=O)n4ncc(-c5ccccn5)c4[nH]3)ccc2o1` [Example 169, 5-(2-Methylbenzofuran-5-yl)-3-(pyridin-2-yl)pyrazolo[1,5-a]pyrimidin-7(4H)-one], the IC50 is at most 10 µM.

For `Cc1cc2cc(-c3cc(=O)n4nc(N)c(-c5ccccn5)c4[nH]3)ccc2o1` [Example 170, 2-Amino-5-(2-methylbenzofuran-5-yl)-3-(pyridin-2-yl)pyrazolo[1,5-a]pyrimidin-7(4H)-one], the IC50 is at most 10 µM.

As to `Nc1nn2c(=O)cc(-c3ccc(C(F)(F)F)cc3)[nH]c2c1-c1ccccn1` [Example 172, 2-amino-3-(pyridin-2-yl)-5-(4-(trifluoromethyl)phenyl)pyrazolo[1,5-a]pyrimidin-7(411)-one], the IC50 is at most 10 µM.

`O=c1cc(-c2ccc(C(F)(F)F)cc2)[nH]c2c(-c3ccccn3)cnn12` [Example 173, 3-(Pyridin-2-yl)-5-(4-(trifluoromethyl)phenyl)pyrazolo[1,5-a]pyrimidin-7(4H)-one]: the IC50 was at most 10 µM.

For `Nc1nn2c(=O)cc(-c3cccc(F)c3)[nH]c2c1-c1ccccn1` [Example 174, 2-Amino-5-(3-fluorophenyl)-3-(pyridin-2-yl)pyrazolo[1,5-a]pyrimidin-7(4H)-one], the IC50 was at most 10 µM.

On to `O=c1cc(-c2cccc(F)c2)[nH]c2c(-c3ccccn3)cnn12` [Example 175, 5-(3-Fluorophenyl)-3-(pyridin-2-yl)pyrazolo[1,5-a]pyrimidin-7(4H)-one], for which the IC50 is at most 10 µM.

As to `Nc1nn2c(=O)cc(-c3ccc(F)cc3F)[nH]c2c1-c1ccccn1` [Example 176, 2-Amino-5-(2,4-difluorophenyl)-3-(pyridin-2-yl)pyrazolo[1,5-a]pyrimidin-7(4H)-one], the IC50 is at most 10 µM.

As for `O=c1cc(-c2ccc(F)cc2F)[nH]c2c(-c3ccccn3)cnn12` [Example 177, 5-(2,4-Difluorophenyl)-3-(pyridin-2-yl)pyrazolo[1,5-a]pyrimidin-7(4H)-one], the IC50 is at most 10 µM.

For the molecule `CCCNC(=O)c1c(N)nn2c(=O)cc(-c3ccc4c(c3)OCO4)[nH]c12` [Example 178, 2-Amino-5-(benzo[d][1,3]dioxol-5-yl)-7-oxo-N-propyl-4,7-dihydropyrazolo[1,5-a]pyrimidine-3-carboxamide], the IC50 is at most 10 µM.

As for `CCC(=O)Nc1nn2c(=O)cc(-c3ccc4c(c3)OCO4)[nH]c2c1-c1ccccn1` [Example 180, N-(5-(Benzo[d][1,3]dioxol-5-yl)-7-oxo-3-(pyridin-2-yl)-4,7-dihydropyrazolo[1,5-a]pyrimidin-2-yl)propionamide], the IC50 was at most 10 µM.

Turning to `CC(C)C(=O)Nc1nn2c(=O)cc(-c3ccc4c(c3)OCO4)[nH]c2c1-c1ccccn1` [Example 181, N-(5-(Benzo[d][1,3]dioxol-5-yl)-7-oxo-3-(pyridin-2-yl)-4,7-dihydropyrazolo[1,5-a]pyrimidin-2-yl)isobutyramide], the IC50 was at most 10 µM.

Consider `CC(=O)Nc1nn2c(=O)cc(-c3ccc4[nH]ncc4c3)[nH]c2c1-c1ccccn1` [Example 182, N-(5-(1H-Indazol-5-yl)-7-oxo-3-(pyridin-2-yl)-4,7-dihydropyrazolo[1,5-a]pyrimidin-2-yl)acetamide], for which the IC50 was at most 10 µM.

With `CCc1nn2c(=O)cc(-c3ccc4[nH]ncc4c3)[nH]c2c1-c1ccccn1` [Example 183, 2-Ethyl-5-(1H-indazol-5-yl)-3-(pyridin-2-yl)pyrazolo[1,5-a]pyrimidin-7(4H)-one], the IC50 was at most 10 µM.

For the molecule `Cn1ncc2cc(-c3cc(=O)n4nc(N)c(-c5ccccn5)c4[nH]3)ccc21` [Example 184, 2-Amino-5-(1-methyl-1H-indazol-5-yl)-3-(pyridin-2-yl)pyrazolo[1,5-a]pyrimidin-7(4H)-one], the IC50 was at most 10 µM.

For the molecule `Cc1nn2c(=O)cc(-c3ccc4[nH]nnc4c3)[nH]c2c1Cc1ccccc1` [Example 185, 5-(1H-Benzo[d][1,2,3]triazol-5-yl)-3-benzyl-2-methylpyrazolo[1,5-a]pyrimidin-7(4H)-one], the IC50 is at most 10 µM.

On to `Cn1ncc2cc(-c3cc(=O)n4ncc(-c5ccccn5)c4[nH]3)ccc21` [Example 186, 5-(1-Methyl-1H-indazol-5-yl)-3-(pyridin-2-yl)pyrazolo[1,5-a]pyrimidin-7(4H)-one], for which the IC50 was at most 10 µM.

As to `O=c1cc(-c2ccc3[nH]ncc3c2)[nH]c2c(-c3ccccn3)c(O)nn12` [Example 187, 2-Hydroxy-5-(1H-indazol-5-yl)-3-(pyridin-2-yl)pyrazolo[1,5-a]pyrimidin-7(4H)-one], the IC50 was at most 10 µM.

For `Cc1n[nH]c2ccc(-c3cc(=O)n4nc(N)c(-c5ccccn5)c4[nH]3)cc12` [Example 188, 2-Amino-5-(3-methyl-1H-indazol-5-yl)-3-(pyridin-2-yl)pyrazolo[1,5-a]pyrimidin-7(4H)-one], the IC50 is at most 10 µM.

On to `Cc1n[nH]c2ccc(-c3cc(=O)n4ncc(-c5ccccn5)c4[nH]3)cc12` [Example 189, 5-(3-Methyl-1H-indazol-5-yl)-3-(pyridin-2-yl)pyrazolo[1,5-a]pyrimidin-7(4H)-one], for which the IC50 is at most 10 µM.

As to `CCc1nn2c(=O)cc(-c3ccc(Cl)cc3)[nH]c2c1-c1ccccn1` [Example 190, 5-(4-Chlorophenyl)-2-ethyl-3-(pyridin-2-yl)pyrazolo[1,5-a]pyrimidin-7(4H)-one], the IC50 was at most 10 µM.

Take `O=c1cc(-c2ccc3[nH]nnc3c2)[nH]c2c(-c3ccccn3)cnn12` [Example 192, 5-(1H-Benzo[d][1,2,3]triazol-5-yl)-3-(pyridin-2-yl)pyrazolo[1,5-a]pyrimidin-7(4H)-one]: the IC50 is at most 10 µM.

Consider `Cn1nnc2cc(-c3cc(=O)n4nc(N)c(-c5ccccn5)c4[nH]3)ccc21` [Example 194, 2-Amino-5-(1-methyl-1H-benzo[d][1,2,3]triazol-5-yl)-3-(pyridin-2-yl)pyrazolo[1,5-a]pyrimidin-7(4H)-one], for which the IC50 was at most 10 µM.

With `Cn1nnc2cc(-c3cc(=O)n4ncc(-c5ccccn5)c4[nH]3)ccc21` [Example 195, 5-(1-Methyl-1H-benzo[d][1,2,3]triazol-5-yl)-3-(pyridin-2-yl)pyrazolo[1,5-a]pyrimidin-7(4H)-one], the IC50 is at most 10 µM.

Regarding `CCc1nn2c(=O)cc(-c3ccc4c(cnn4C)c3)[nH]c2c1-c1ccccn1` [Example 196, 2-Ethyl-5-(1-methyl-1H-indazol-5-yl)-3-(pyridin-2-yl)pyrazolo[1,5-a]pyrimidin-7(4H)-one], the IC50 was at most 10 µM.

As to `Cc1nn2c(=O)cc(-c3ccc4[nH]nnc4c3)[nH]c2c1-c1ccccn1` [Example 200, 5-(1H-Benzo[d][1,2,3]triazol-5-yl)-2-methyl-3-(pyridin-2-yl)pyrazolo[1,5-a]pyrimidin-7(4H)-one], the IC50 is at most 10 µM.
